For orientation: IC50 means the concentration at which inhibition is half-maximal. A low value points to greater potency in that assay. The term inhibition denotes the change of the read-out against control, counted positive when it falls. A higher inhibition goes with a strong effect.

IC50 and inhibition data for nine molecules are collected here from ChEMBL document CHEMBL1165871, “Synthesis of some 5-phenylisoxazole-3-carboxylic acid derivatives as potent xanthine oxidase inhibitors” (Eur J Med Chem, 2010).

The structures appear in SMILES notation.

T1 sequence (P80457 whole entry): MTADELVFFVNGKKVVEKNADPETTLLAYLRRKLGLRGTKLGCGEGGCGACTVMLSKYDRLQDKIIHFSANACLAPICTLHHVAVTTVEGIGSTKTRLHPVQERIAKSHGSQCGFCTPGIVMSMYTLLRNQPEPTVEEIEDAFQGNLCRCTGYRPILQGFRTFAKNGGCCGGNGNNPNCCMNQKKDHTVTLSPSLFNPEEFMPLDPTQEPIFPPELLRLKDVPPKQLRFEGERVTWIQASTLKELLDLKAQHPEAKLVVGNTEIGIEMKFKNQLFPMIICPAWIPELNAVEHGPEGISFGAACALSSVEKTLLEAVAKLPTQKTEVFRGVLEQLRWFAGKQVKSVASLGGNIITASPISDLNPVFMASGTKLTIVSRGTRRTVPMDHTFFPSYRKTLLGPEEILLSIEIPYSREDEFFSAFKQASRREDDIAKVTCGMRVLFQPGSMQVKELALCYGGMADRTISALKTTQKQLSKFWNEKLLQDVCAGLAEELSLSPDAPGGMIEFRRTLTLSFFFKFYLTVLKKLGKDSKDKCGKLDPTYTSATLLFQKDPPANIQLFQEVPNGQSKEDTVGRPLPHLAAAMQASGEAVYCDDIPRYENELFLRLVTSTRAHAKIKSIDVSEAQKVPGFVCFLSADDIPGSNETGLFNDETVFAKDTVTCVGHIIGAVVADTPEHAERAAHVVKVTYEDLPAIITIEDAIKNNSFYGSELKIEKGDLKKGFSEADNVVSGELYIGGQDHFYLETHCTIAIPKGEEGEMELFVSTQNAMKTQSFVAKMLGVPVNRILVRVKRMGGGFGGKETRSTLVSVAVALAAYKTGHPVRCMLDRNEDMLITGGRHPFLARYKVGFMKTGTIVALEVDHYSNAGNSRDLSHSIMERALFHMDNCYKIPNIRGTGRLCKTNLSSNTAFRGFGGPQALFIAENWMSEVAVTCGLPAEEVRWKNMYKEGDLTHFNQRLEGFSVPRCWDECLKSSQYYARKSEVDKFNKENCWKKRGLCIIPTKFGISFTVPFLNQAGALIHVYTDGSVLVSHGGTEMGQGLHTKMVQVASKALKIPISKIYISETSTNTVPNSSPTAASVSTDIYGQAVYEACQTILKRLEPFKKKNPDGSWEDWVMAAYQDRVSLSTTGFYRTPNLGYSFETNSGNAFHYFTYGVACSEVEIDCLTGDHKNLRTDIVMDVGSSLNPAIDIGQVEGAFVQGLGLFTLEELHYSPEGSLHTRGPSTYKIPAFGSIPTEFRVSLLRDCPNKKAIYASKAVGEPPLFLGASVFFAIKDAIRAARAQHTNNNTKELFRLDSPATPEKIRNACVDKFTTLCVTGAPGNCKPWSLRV

The first experiment addresses T1, Xanthine dehydrogenase/oxidase (Bos taurus, UniProt P80457). The experiment in a line: Inhibition of bovine xanthine oxidase by spectrophotometry.
Settings: not given
The molecule `CC(C)(C)c1ccc(COc2ccc(-c3cc(C(=O)O)[n-][o+]3)cc2[N+](=O)[O-])cc1` returned an IC50 of 12800 nM.

With `N#Cc1cc(-c2cc(C(=O)O)no2)ccc1OCc1ccccc1`, the midpoint of inhibition, the IC50, lay at 590 nM.

Molecule `CC(C)(C)c1ccc(COc2ccc(-c3cc(C(=O)O)no3)cc2C#N)cc1` yielded an IC50 of 1010 nM. Compared with the last molecule, the IC50 is about 1.7-fold higher.

As to `O=C(O)c1cc(-c2ccc(OCc3ccc(Cl)cc3)c([N+](=O)[O-])c2)on1`, the IC50 came to 2830 nM. Against the preceding molecule, the IC50 is about 2.8-fold higher.

As for `CC(C)COc1ccc(-c2cc(C(=O)O)no2)cc1[N+](=O)[O-]`, the IC50 was 1000 nM. Against the preceding molecule, the IC50 is about 2.8-fold lower.

`O=C(O)c1cc(-c2ccc(OCc3ccccc3)c([N+](=O)[O-])c2)on1` showed an IC50 of 970 nM.

On to `N#Cc1cc(-c2cc(C(=O)O)no2)ccc1OCc1ccc(Cl)cc1`, for which the concentration for half-maximal inhibition (IC50) stood at 630 nM.

The target in the next experiment is T1, Xanthine dehydrogenase/oxidase. The experiment in a line: Inhibition of bovine xanthine oxidase at 10 ug/ml by spectrophotometry. The conditions noted are these: cattle.
On to `Cc1ccc(COc2ccc(-c3cc(C(=O)O)no3)cc2[N+](=O)[O-])cc1`, for which the inhibition at 10 µg/mL was under 50%.

`Cc1ccc(COc2ccc(-c3cc(C(=O)O)no3)cc2C#N)cc1`: the inhibition at 10 µg/mL was under 50%.
